According to PubChem BioAssay AID463206 (Broad Institute, 2010):
Calls of active or inactive are those of the source.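 The calls were made as follows: active = caspase luminescence falls with dose and the half-maximal concentration AC50 from the fitted curve is at or below a set limit; inconclusive = flat fit at 30 to 70% signal loss, or invalid fit; inactive = AC50 above the limit, or signal rises instead.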

Test system: INS-1E cytokine-induced caspase-3/7, Caspase-Glo luminescence, 48 h
Assay: inhibitors of cytokine-induced caspase-3/7 activity, dose response, orthogonal assay for beta-cell apoptosis protection project, INS-1E rat cells, luminescence (AID 463206)

Row | SMILES | AC50
1 | CCCCCCc1cc2cc(-c3nnc(-c4ccccc4)o3)c(=O)oc2cc1O | > 26 µM (inactive)
2 | Oc1ccc(N=Nc2nccs2)c(O)c1 | > 26 µM (inactive)
3 | Cc1nc2ccc(NC(=O)c3cc(S(=O)(=O)N(C)c4ccccc4)ccc3Cl)cc2s1 | > 26 µM (inactive)
4 | CCCCCCCCCCn1c2c(c(=N)c3c1CCC3)CCC2 | > 26 µM (inactive)
5 | COc1ccc(C(=O)NCC(=O)N/N=C/c2ccc([N+](=O)[O-])s2)cc1OC | > 26 µM (inactive)
6 | COc1ccc(S(=O)(=O)/N=C2\C=C(Nc3ccc(O)cc3)C(=O)c3ccccc32)cc1 | > 26 µM (inactive)
7 | COc1ccc(OC)c2c1C(=O)C(Cl)=C(Cl)C2=O | > 26 µM (inactive)
8 | CCN(CC)S(=O)(=O)c1cccc(NC(=O)c2cc(-c3cccs3)nn2-c2ccccc2)c1 | > 26 µM (inactive)
9 | O=C(NCc1cccnc1)/C(=C\c1ccc(-c2cccc(Cl)c2)o1)S(=O)(=O)c1ccccc1 | > 26 µM (inactive)
10 | O=C(c1cc(COc2cccc(C(F)(F)F)c2)on1)N1CCC(c2ccncc2)CC1 | > 26 µM (inactive)
11 | Cc1cc(N2CCOCC2)nc(N)n1 | > 26 µM (inactive)
12 | Cn1nccc1C(=O)NC1CCCc2c1cnn2-c1ccc(F)cc1F (configuration not stated) | > 26 µM (inactive)
13 | CCCc1sc(N/N=C/c2ccccn2)nc1-c1ccc(Br)cc1 | > 26 µM (inactive)
14 | CSc1nc(-c2ccccc2)nc(C(Cl)Cl)n1 | 2.7 µM
15 | CCCCCCCCNc1ncnc2ccccc12 | > 26 µM (inactive)
16 | COc1ccc(/C=C/C(=O)NC(=S)Nc2ccccc2C(=O)NC2CCCCC2)cc1 | > 26 µM (inactive)
17 | Cc1cc(C)nc(-n2nc(C)cc2Nc2ccccc2)n1 | > 26 µM (inactive)
18 | CCC(CNc1cc(OC)cc2cccnc12)NC1CCCCC1 (configuration not stated) | > 26 µM (inactive)
19 | Cc1cccc2sc(NNC(=O)c3ccc(S(=O)(=O)N4CC(C)CC(C)C4)cc3)nc12 (configuration not stated) | > 26 µM (inactive)
20 | O=C(Nc1ccc(Cl)cc1)Nc1csc([N+](=O)[O-])c1 | > 26 µM (inactive)
21 | COc1cc(NC2CCCCC2O)c2nc(-c3ccc(Cl)cc3)ccc2c1 (configuration not stated) | > 26 µM (inactive)
22 | Cc1ccc(S(=O)(=O)/N=C2\C=C(Nc3cccc(C(=O)O)c3)C(=O)c3ccccc32)c(C)c1 | > 26 µM (inactive)
23 | Cc1cc(N/N=C/c2cccc(Cl)c2)nc(-n2nc(C)cc2C)n1 | > 26 µM (inactive)

Row | SMILES | AC50
24 | Cc1nc2ccccn2c1C(=O)/C=C/c1cccc([N+](=O)[O-])c1 | > 26 µM (inactive)
25 | O=C(Cc1ccccc1)N/N=C/c1ccc([N+](=O)[O-])s1 | > 26 µM (inactive)
26 | c1ccc(CNc2nc(-c3ccccn3)nc3ccccc23)cc1 | > 26 µM (inactive)
27 | CCCCC(=O)NC(c1ccco1)c1cc(Cl)c2cccnc2c1O (configuration not stated) | > 26 µM (inactive)
28 | CC(C)N=c1cc2n(-c3ccc(Cl)cc3)c3ccccc3nc-2cc1Nc1ccc(Cl)cc1 | > 26 µM (inactive)
29 | COc1ccc(Cn2c(-c3ccc(C)cc3)c[n+]3ccccc23)cc1 | > 26 µM (inactive)
30 | C#CCOCCOCCOCCNc1nc(N2CCN(C(=O)CCCCCCCCCCNC(=O)[C@H]([C@@H](C)CC)n3cc(CCCCCN)nn3)CC2)nc(N2CCN(C(=O)CCCCCCCCCCNC(=O)[C@@H]([C@H](C)O)n3cc(C)nn3)CC2)n1 | > 26 µM (inactive)
31 | O=c1nccc(N/N=C/c2ccccc2O)[nH]1 | > 26 µM (inactive)
32 | Cc1ccc(C2CC(c3cccc(C)c3)n3nc(N)nc3N2)cc1 (configuration not stated) | > 26 µM (inactive)
33 | CCc1ccc(-c2nn(-c3ccccc3)cc2CSC(=N)N)cc1 | > 26 µM (inactive)
34 | COc1ccccc1OCCCCOc1ccccc1C(C)=O | > 26 µM (inactive)
35 | Cc1ccc(Sc2cc(C)nc(-c3ccccn3)n2)cc1 | > 12 µM (inactive)
36 | O=S(=O)(c1cccs1)N1CCN(CC(O)COc2cc(Cl)ccc2Cl)CC1 (configuration not stated) | > 26 µM (inactive)
37 | CCC(C)(C)c1ccc(OCCCC[n+]2ccc(C)cc2)c(C(C)(C)CC)c1 | > 26 µM (inactive)
38 | Cc1nc(Nc2cnc(/C=C/c3cc(C(=O)Nc4cccc(C(F)(F)F)c4)ccc3C)cn2)cc(N2CCNCC2)n1 | > 26 µM (inactive)
39 | Cc1cc2nc(NCCCO)n(CC(=O)c3cc(C(C)(C)C)c(O)c(C(C)(C)C)c3)c2cc1C | > 26 µM (inactive)
40 | COc1ccc([C@H]2CC(=O)C=C(c3ccnc4ccc(Cl)cc34)C2)cc1 | > 26 µM (inactive)
41 | Nc1ccc2c(c1)C(=O)C(=O)c1ccccc1-2 | > 26 µM (inactive)
42 | Cc1noc(-c2ccc(C(F)(F)F)cc2)c1NC(=O)Nc1ccc(Cl)cc1 | > 26 µM (inactive)
43 | Cc1ccc(C(C)C)c(OCc2ccc(C(=O)N/N=C/c3cccc(O)c3O)cc2)c1 | > 26 µM (inactive)
44 | C=C1[C@@H](O)[C@@H]2O[C@]3(CC[C@H](/C=C/[C@@H](C)[C@@H]4CC(C)=CC5(O[C@H](C[C@@](C)(O)C(=O)OC)CC[C@H]5O)O4)O3)CC[C@H]2O[C@@H]1[C@@H](O)C[C@H](C)[C@H]1OC2(CCCCO2)CC[C@H]1C (some centres not stated) | > 26 µM (inactive)
45 | CCOc1cc(/C=C2\COc3ccccc3C2=O)cc(Br)c1OCC(=O)N(C)C | > 26 µM (inactive)
46 | COCc1ccc(O)c2ncccc12 | > 26 µM (inactive)

Row | SMILES | AC50
47 | Cc1cnc(NC(=O)CN2CCN(c3ccccn3)CC2)s1 | > 26 µM (inactive)
48 | Cc1ccc(-c2cnc(NC(=O)CCC(=O)N(C)Cc3ccccc3)n2C)cc1 | > 26 µM (inactive)
49 | CC(C)(C)n1[nH]c2c3c(ccc2c1=O)C(=O)c1ccccc1C3=O | > 26 µM (inactive)
50 | O=C(Oc1c(CN2CCOCC2)cc(Cl)c2cccnc12)c1cccs1 | > 26 µM (inactive)
51 | C/C(=N\NC(N)=S)c1ccncc1 | > 26 µM (inactive)
52 | CCc1ccc2[nH]c3nc(N/N=C/c4ccc(O)cc4O)nnc3c2c1 | > 12 µM (inactive)
53 | CCOC(=O)c1cnc(-n2nc(C)cc2C)nc1Nc1ccc(N(C)C)cc1 | > 26 µM (inactive)
54 | Cc1cc(N/N=C/c2c(O)ccc3ccccc23)nc(-c2ccccc2O)n1 | > 26 µM (inactive)
55 | COc1ccc(CC2(CO)CCN(CC3=Cc4cc(Cl)ccc4OC3)CC2)cc1 | > 26 µM (inactive)
56 | CC1CC(C)CN(S(=O)(=O)c2ccc(C(=O)NCCCn3ccnc3)cc2)C1 (configuration not stated) | > 26 µM (inactive)
57 | O=C(C(Sc1ccccc1)c1ccccc1)N1CCN(c2ccccc2F)CC1 (configuration not stated) | > 26 µM (inactive)
58 | Cc1nnc(N/N=C/c2cc([N+](=O)[O-])c(N3CCC(C)CC3)cc2N2CCC(C)CC2)n1N | > 26 µM (inactive)
59 | CC[N+](C)(CC)CCC(c1ccccc1)C1CCCCC1 (configuration not stated) | > 26 µM (inactive)
60 | CC(C)(C)c1ccc(-n2ncc3c2CCCC3NC(=O)C2(C(N)=O)CC2)cc1 (configuration not stated) | > 26 µM (inactive)
61 | O=C1C=C(Nc2ccccc2)C(=O)c2ccccc21 | > 26 µM (inactive)
62 | CN1CCN(c2ccc([N+](=O)[O-])c3no[n+]([O-])c23)CC1 | > 26 µM (inactive)
63 | CC(C)C(=O)NC(c1ccccc1)c1cc([N+](=O)[O-])c2cccnc2c1O (configuration not stated) | > 26 µM (inactive)
64 | Cc1ccc(C(=O)OCn2ncc(Cl)c(Cl)c2=O)cc1 | > 26 µM (inactive)
65 | Cc1ccccc1-[n+]1c(-c2ccccc2)cc(-c2ccccc2)cc1-c1ccccc1 | > 26 µM (inactive)
66 | COc1ccc(C(C)NCCC(c2ccc(OC(C)C)cc2)c2ccccc2OC)cc1 (configuration not stated) | > 26 µM (inactive)
67 | COc1ccc(-n2cc(-c3ccc(OC(F)F)cc3)[n+]3c2CCCCC3)cc1 | > 26 µM (inactive)
